The test system of this assay is HCV 1b-Con-1 replicon. As to the kind of experiment: HCV 1b-Con-1 replicon assay (luciferase reporter gene, HuH-7 cells). In kind it is cell-based, Hepatitis C virus (HCV) genotype 1b-Con1. To be noted: Hepatitis C virus, Huh-7, luciferase reporter gene activity in the replicon, in the presence of 5% FBS.
Consider `COC(=O)N[C@H](C(=O)N1CCC[C@H]1C(=O)Nc1ccc(CN(Cc2ccc(NC(=O)[C@@H]3CCCN3C(=O)[C@H](NC(=O)[C@@H]3CCCO3)c3ccccc3)cc2)c2ccccc2)cc1)C(C)(C)C` [Example 87, N-(methoxycarbonyl)-3-methyl-L-valyl-N-[4-({phenyl[4-({1-[(2R)-2-phenyl-2-{[(2S)-tetrahydrofuran-2-ylcarbonyl]amino}acetyl]-L-prolyl}amino)benzyl]amino}methyl)phenyl]-L-prolinamide], for which the EC50 is under 1 nM. Regarding `COC(=O)N[C@H](C(=O)N1CC=C[C@H]1C(=O)Nc1ccc(CN(Cc2ccc(NC(=O)[C@@H]3C=CCN3C(=O)[C@@H](NC(=O)OC)C(C)(C)C)cc2)c2ccc(F)cc2)cc1)C(C)(C)C` [Example 125, methyl [(1S)-1-{[(2S)-2-{[4-({(4-fluorophenyl)[4-({[(2S)-1-{(2S)-2-[(methoxycarbonyl)amino]-3,3-dimethylbutanoyl}-2,5-dihydro-1H-pyrrol-2-yl]carbonyl}amino)benzyl]amino}methyl)phenyl]carbamoyl}-2,5-dihydro-1H-pyrrol-1-yl]carbonyl}-2,2-dimethylpropyl]carbamate], the EC50 was under 1 nM. As for `CCN(CC)[C@@H](C(=O)N1CCC[C@H]1C(=O)Nc1ccc(CN(Cc2ccc(NC(=O)[C@@H]3CCCN3C(=O)[C@@H](NC(=O)OC)[C@@H](C)OC)cc2)c2ccc(F)cc2)cc1)c1ccccc1` [Example 84, N-(methoxycarbonyl)-O-methyl-L-threonyl-N-[4-({[4-({1-[(2R)-2-(diethylamino)-2-phenylacetyl]-L-prolyl}amino)benzyl](4-fluorophenyl)amino}methyl)phenyl]-L-prolinamide], the figure is under 1 nM; as for `CC[C@H](C)[C@H](NC(=O)OC(C)(C)C)C(=O)N1CCC[C@H]1C(=O)Nc1ccc(CN(Cc2ccc(NC(=O)[C@@H]3CCCN3C(=O)[C@@H](NC(=O)OC(C)(C)C)[C@@H](C)CC)cc2)c2ccccc2)cc1` [Example 41, di-tert-butyl[(phenylimino)bis{methanediylbenzene-4,1-diylcarbamoyl(2S)pyrrolidine-2,1-diyl[(2S,3S)-3-methyl-1-oxopentane-1,2-diyl]}]biscarbamate], 10 to 100 nM; as for `COC(=O)N[C@H](C(=O)N1CCCC[C@H]1C(=O)Nc1ccc(CN(Cc2ccc(NC(=O)[C@@H]3CCCCN3C(=O)[C@@H](NC(=O)OC)C(C)(C)C)cc2)c2ccc(F)cc2)cc1)C(C)(C)C` [Example 101, methyl [(1S)-1-{[(2S)-2-{[4-({(4-fluorophenyl)[4-({[(2S)-1-{(2S)-2-[(methoxycarbonyl)amino]-3,3-dimethylbutanoyl}piperidin-2-yl]carbonyl}amino)benzyl]amino}methyl)phenyl]carbamoyl}piperidin-1-yl]carbonyl}-2,2-dimethylpropyl]carbamate], under 1 nM. For the compound `CC[C@@H](C)[C@H](NC(=O)OC)C(=O)N1CCC[C@H]1C(=O)Nc1ccc(CN(Cc2ccc(NC(=O)[C@@H]3CCCN3C(=O)[C@@H](NC(=O)OC)[C@H](C)CC)cc2)c2ccccc2)cc1` [Example 50, dimethyl[(phenylimino)bis{methanediylbenzene-4,1-diylcarbamoyl(2S)pyrrolidine-2,1-diyl[(2S,3R)-3-methyl-1-oxopentane-1,2-diyl]}]biscarbamate], the EC50 is under 1 nM.

For `COC(=O)N[C@H](C(=O)N1C[C@@H](O)C[C@H]1C(=O)Nc1ccc(CN(Cc2ccc(NC(=O)[C@@H]3C[C@H](O)CN3C(=O)[C@@H](NC(=O)OC)C(C)(C)C)cc2)c2ccc(F)cc2)cc1)C(C)(C)C` [Example 136], the EC50 is under 1 nM. As for `COC(=O)N[C@H](C(=O)N1CCC[C@H]1C(=O)Nc1ccc(CN(Cc2ccc(NC(=O)[C@@H]3CCCN3C(=O)[C@@H](NC(=O)OC)C(C)(C)O)cc2)c2ccccc2)cc1)C(C)(C)O` [Example 28, dimethyl [(phenylimino)bis{methanediylbenzene-4,1-diylcarbamoyl(2S)pyrrolidine-2,1-diyl[(2S)-3-hydroxy-3-methyl-1-oxobutane-1,2-diyl]}]biscarbamate], the figure is under 1 nM.

As to `CC(=O)N[C@@H](C(=O)N1CCC[C@H]1C(=O)Nc1ccc(CN(Cc2ccc(NC(=O)[C@@H]3CCCN3C(=O)[C@H](NC(C)=O)c3ccccc3)cc2)c2ccccc2)cc1)c1ccccc1` [Example 43, (2S,2′S)-N,N′-[(phenylimino)bis(methanediylbenzene-4,1-diyl)]bis{1-[(2R)-2-(acetylamino)-2-phenylacetyl]pyrrolidine-2-carboxamide}], the EC50 is under 1 nM. As for `COC(=O)N[C@H](C(=O)N1CCC[C@H]1C(=O)Nc1ccc(CN(Cc2ccc(NC(=O)[C@@H]3CCCN3C(=O)[C@@H](NC(=O)OC)C(C)C)cc2)C2CCCC2)cc1)C(C)C` [Example 27, dimethyl[(cyclopentylimino)bis{methanediylbenzene-4,1-diylcarbamoyl(2S)pyrrolidine-2,1-diyl[(2S)-3-methyl-1-oxobutane-1,2-diyl]}]biscarbamate], the figure is 10 to 100 nM.

As for `CCN(CC)[C@@H](C(=O)N1CCC[C@H]1C(=O)Nc1ccc(CN(Cc2ccc(NC(=O)[C@@H]3CCCN3C(=O)[C@@H](NC(=O)OC)[C@H]3CCOC3)cc2)c2ccc(F)cc2)cc1)c1ccccc1` [Example 81, methyl {(1S)-2-{(2S)-2-[(4-{[{4-[({(2S)-1-[(2R)-2-(diethylamino)-2-phenylacetyl]pyrrolidin-2-yl}carbonyl)amino]benzy}(4-fluorophenyl)amino]methyl}phenyl)carbamoyl]pyrrolidin-1-yl}-2-oxo-1-[(3R)-tetrahydrofuran-3-yl]ethyl}carbamate], the EC50 was under 1 nM. As for `COC(=O)N[C@H](C(=O)N1CSC(C)(C)[C@H]1C(=O)Nc1ccc(CN(Cc2ccc(NC(=O)[C@H]3N(C(=O)[C@@H](NC(=O)OC)C(C)(C)C)CSC3(C)C)cc2)c2ccccc2)cc1)C(C)(C)C` [Example 93, methyl [(1S)-1-{[(4R)-4-{[4-({[4-({[(4R)-3-{(2S)-2-[(methoxycarbonyl)amino]-3,3-dimethylbutanoyl}-5,5-dimethyl-1,3-thiazolidin-4-yl]carbonyl}amino)benzyl](phenyl)amino}methyl)phenyl]carbamoyl}-5,5-dimethyl-1,3-thiazolidin-3-yl]carbonyl}-2,2-dimethylpropyl]carbamate], the figure is 1 to 10 nM. Regarding `CC[C@H](NC(=O)OC)C(=O)N1CCC[C@H]1C(=O)Nc1ccc(CN(Cc2ccc(NC(=O)[C@@H]3CCCN3C(=O)[C@H](CC)NC(=O)OC)cc2)c2ccc(F)cc2)cc1` [Example 112, dimethyl ([(4-fluorophenyl)imino]bis{methanediylbenzene-4,1-diylcarbamoyl(25)pyrrolidine-2,1-diyl[(2S)-1-oxobutane-1,2-diyl]})biscarbamate], the half-maximal effective concentration (EC50) is 1 to 10 nM. Take `COC(=O)N[C@H](C(=O)N1CCC[C@H]1C(=O)Nc1ccc(CN(Cc2ccc3[nH]c([C@@H]4CCCN4C(=O)[C@@H](NC(=O)OC)C(C)C)nc3c2)c2ccccc2)cc1)C(C)C` [Example 20]: the EC50 is under 1 nM.

(Values after patent publication US9278922B2 (ABBVIE INC., priority 2009, dated 2016).)
